Experimental data taken from US8415469B2, “Compounds and methods for kinase modulation, and indications therefor” (Plexxikon Inc., priority 2005, dated 2013).

How the values were obtained:
Format in all cases: biochemical
IGF1R = IGF1R (Homo sapiens, UniProt P08069); assay: AlphaScreen kinase assay, IGF1R; details: read-out: IC50, activity toward kinase IGF1R
Syk = Syk (Homo sapiens, UniProt P43405); assay: AlphaScreen kinase assay, Syk; details: read-out: IC50, activity toward kinase Syk
Source text: AlphaScreen assay was used to screen additional kinases. The assay is similarly dependent on the phosphorylation of a peptide substrate. In this assay, an antibody that recognizes phosphorylated substrate is bound to an acceptor bead. The peptide substrate is attached to biotin, which binds to a donor head that contains streptavidin. Thus phosphorylated substrate is bound by antibody and streptavidin, bringing the donor and acceptor heads into close proximity when kinase is not inhibited. The donor produces singlet oxygen which results in emission from the acceptor when they are in close proximity. Conversely, when kinase is inhibited, the donor and acceptor beads are not associated and the emission from the acceptor is reduced.
AlphaScreen assays were done using compounds dissolved in DMSO to a concentration of 20 mM. The compounds were diluted accordingly to the desired final concentrations in each sample well, using 1:3 serial dilution for a total of 8 concentration points.

Jnk2 = target: T1, Jnk2 (Homo sapiens, UniProt P45984); assay: AlphaScreen kinase assay, Jnk2; details: read-out: IC50, activity toward kinase Jnk2
T1 construct: purchased Roche Protein Expression Group (Indianapolis, IN)
Summary of the method: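 Peptide phosphorylation detected by proximity: streptavidin donor beads bind biotinylated substrate, acceptor beads carry antibody to phosphorylated substrate, singlet oxygen transfer gives emission. Dose-response over 8 points (1:3 steps); stocks 20 mM in DMSO.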

Pyk2 = target: T2, Pyk2 (Homo sapiens, UniProt Q14289); assay: AlphaScreen kinase assay, Pyk2; details: read-out: IC50, activity toward kinase Pyk2
T2 construct: purchased Upstate Biotechnology

MAP4K4 = MAP4K4 (Homo sapiens, UniProt O95819); assay: AlphaScreen kinase assay, MAP4K4; details: read-out: IC50, activity toward kinase MAP4K4
Chain of MAP4K4 (O95819 whole entry): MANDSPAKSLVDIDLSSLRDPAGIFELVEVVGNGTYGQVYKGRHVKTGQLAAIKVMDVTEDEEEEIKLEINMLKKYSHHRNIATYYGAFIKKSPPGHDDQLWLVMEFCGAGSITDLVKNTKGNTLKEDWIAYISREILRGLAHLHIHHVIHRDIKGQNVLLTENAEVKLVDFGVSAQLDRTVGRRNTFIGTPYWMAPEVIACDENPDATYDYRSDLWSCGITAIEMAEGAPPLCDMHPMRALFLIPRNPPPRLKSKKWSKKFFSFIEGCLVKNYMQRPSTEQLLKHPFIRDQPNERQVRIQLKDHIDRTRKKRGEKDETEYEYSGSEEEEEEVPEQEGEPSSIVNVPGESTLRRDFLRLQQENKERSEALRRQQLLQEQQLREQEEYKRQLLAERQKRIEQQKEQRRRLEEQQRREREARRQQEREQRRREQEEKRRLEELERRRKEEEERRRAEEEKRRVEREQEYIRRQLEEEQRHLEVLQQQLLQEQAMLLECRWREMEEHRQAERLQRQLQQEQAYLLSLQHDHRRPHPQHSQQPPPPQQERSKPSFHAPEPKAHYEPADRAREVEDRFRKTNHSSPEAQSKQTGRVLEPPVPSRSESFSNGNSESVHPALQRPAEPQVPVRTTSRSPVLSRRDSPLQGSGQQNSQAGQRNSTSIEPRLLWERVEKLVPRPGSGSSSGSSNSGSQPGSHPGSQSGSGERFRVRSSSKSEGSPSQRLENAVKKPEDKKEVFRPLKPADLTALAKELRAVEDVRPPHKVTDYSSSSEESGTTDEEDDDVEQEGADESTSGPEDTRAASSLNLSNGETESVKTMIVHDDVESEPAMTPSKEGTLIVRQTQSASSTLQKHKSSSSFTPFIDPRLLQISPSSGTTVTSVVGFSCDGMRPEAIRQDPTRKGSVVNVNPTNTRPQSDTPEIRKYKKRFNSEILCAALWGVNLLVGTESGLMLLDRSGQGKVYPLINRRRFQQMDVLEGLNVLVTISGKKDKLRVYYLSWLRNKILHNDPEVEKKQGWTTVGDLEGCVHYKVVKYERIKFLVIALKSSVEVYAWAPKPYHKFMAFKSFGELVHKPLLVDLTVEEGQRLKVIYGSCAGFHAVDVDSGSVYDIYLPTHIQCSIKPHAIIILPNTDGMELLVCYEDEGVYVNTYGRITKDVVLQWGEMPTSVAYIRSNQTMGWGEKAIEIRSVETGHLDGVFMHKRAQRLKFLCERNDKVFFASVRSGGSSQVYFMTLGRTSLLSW

Chain of IGF1R (P08069 31-1367): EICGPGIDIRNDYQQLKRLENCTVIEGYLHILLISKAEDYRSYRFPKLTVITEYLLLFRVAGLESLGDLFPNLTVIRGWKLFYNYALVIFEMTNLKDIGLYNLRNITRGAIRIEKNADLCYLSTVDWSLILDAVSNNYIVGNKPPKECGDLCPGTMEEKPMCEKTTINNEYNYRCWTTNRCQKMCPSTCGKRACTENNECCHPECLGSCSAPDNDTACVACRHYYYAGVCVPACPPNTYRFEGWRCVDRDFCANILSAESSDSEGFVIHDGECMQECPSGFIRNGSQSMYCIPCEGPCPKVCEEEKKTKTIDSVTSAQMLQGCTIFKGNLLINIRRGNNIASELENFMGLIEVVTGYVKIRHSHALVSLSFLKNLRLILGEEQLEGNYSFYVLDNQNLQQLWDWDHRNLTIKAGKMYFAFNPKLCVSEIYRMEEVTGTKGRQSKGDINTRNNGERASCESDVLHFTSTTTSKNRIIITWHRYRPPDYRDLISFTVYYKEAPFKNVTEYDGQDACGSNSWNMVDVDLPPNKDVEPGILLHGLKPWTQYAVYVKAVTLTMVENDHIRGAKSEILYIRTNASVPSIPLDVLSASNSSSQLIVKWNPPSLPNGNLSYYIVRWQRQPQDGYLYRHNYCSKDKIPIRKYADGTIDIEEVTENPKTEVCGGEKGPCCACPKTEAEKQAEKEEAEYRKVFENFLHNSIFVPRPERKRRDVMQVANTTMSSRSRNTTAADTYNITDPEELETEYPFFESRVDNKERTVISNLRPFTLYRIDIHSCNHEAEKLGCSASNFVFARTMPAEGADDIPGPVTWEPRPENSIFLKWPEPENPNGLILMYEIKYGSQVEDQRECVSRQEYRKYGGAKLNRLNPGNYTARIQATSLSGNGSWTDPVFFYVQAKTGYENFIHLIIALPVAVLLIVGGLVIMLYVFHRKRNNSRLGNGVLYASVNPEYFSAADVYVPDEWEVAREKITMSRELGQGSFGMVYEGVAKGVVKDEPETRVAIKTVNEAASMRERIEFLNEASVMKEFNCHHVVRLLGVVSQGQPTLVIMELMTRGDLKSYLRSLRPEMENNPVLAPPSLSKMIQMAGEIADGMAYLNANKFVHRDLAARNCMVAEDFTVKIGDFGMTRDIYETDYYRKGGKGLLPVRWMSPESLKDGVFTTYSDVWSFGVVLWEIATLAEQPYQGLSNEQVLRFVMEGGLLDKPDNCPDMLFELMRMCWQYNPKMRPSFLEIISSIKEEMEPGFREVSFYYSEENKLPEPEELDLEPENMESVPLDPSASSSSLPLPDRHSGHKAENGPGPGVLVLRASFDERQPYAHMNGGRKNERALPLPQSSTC
T1 sequence (P45984 whole entry): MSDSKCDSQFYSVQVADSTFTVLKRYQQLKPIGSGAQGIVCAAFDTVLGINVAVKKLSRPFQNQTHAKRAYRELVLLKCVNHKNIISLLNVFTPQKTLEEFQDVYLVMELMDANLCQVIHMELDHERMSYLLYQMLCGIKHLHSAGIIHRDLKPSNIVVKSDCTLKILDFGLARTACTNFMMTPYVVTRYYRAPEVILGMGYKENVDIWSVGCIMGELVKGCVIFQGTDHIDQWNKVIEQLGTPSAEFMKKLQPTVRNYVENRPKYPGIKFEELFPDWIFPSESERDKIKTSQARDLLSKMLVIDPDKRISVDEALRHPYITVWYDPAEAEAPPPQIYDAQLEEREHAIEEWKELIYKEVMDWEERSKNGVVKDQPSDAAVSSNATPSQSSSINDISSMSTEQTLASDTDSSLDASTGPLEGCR
T2 sequence (Q14289 whole entry): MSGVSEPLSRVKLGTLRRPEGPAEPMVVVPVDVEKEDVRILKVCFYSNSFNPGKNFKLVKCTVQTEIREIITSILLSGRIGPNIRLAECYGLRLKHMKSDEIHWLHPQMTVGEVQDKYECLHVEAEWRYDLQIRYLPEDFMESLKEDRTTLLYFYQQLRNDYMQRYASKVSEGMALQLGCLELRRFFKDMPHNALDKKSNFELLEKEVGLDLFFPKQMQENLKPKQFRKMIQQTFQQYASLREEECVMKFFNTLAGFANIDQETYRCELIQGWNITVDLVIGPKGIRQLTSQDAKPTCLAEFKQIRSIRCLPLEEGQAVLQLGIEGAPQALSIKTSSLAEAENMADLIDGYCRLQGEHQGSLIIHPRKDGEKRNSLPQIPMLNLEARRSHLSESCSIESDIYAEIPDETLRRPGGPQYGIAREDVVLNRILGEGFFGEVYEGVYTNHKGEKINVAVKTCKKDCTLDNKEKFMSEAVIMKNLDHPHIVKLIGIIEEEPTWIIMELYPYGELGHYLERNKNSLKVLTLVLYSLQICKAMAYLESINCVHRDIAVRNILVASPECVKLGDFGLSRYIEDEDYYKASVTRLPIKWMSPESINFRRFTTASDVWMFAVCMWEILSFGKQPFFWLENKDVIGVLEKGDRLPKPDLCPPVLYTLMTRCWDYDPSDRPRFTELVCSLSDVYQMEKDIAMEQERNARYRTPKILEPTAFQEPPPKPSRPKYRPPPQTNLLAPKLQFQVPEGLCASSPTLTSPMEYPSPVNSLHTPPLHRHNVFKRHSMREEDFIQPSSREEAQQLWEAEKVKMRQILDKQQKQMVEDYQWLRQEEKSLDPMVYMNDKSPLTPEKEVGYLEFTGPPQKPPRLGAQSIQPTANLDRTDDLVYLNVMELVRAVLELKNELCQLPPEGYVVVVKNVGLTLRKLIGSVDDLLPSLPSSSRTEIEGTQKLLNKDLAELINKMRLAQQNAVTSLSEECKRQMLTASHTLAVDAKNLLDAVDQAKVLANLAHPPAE

SMILES | IC50 (Jnk2) [µM] | IC50 (Pyk2) [µM] | other results
Nc1cccc(-c2cnc3[nH]cc(C(=O)c4cccc(O)c4)c3c2)c1 [Compound P-0003] | – | – | IC50 (IGF1R): ≤ 10 µM
Nc1cccc(-c2cnc3[nH]cc(C(=O)c4cc(O)ccc4F)c3c2)c1 [Compound P-0002] | – | – | IC50 (Syk): ≤ 10 µM; IC50 (IGF1R): ≤ 10 µM
Cc1ccc(F)cc1C(=O)c1c[nH]c2ncc(-c3cccc(N)c3)cc12 [Compound P-0040] | ≤ 10 | – | –
Oc1ccc(F)c(Cc2c[nH]c3ncc(Br)cc23)c1F [Compound P-0122, 3-(5-Bromo-1H-pyrrolo[2,3-b]pyridin-3-ylmethyl)-2,4-difluoro-phenol] | – | ≤ 10 | –
Nc1cccc(-c2cnc3[nH]cc(C(=O)c4cccc(O)c4F)c3c2)c1 [Compound P-0004, [5-(3-amino-phenyl)-1H-pyrrolo[2,3-b]pyridin-3-yl]-(2-fluoro-3-hydroxy-phenyl)methanone] | – | – | IC50 (IGF1R): ≤ 10 µM
O=C(O)/C=C/c1cccc(-c2cnc3[nH]cc(C(=O)c4ccccc4F)c3c2)c1 [Compound P-0033] | ≤ 10 | – | IC50 (Syk): ≤ 10 µM
Oc1ccc(F)c(C(O)c2c[nH]c3ncc(-c4cccnc4)cc23)c1F (centres unmarked) [Compound P-0009, 2,4-difluoro-3-[hydroxy-(5-pyridin-3-yl-1H-pyrrolo[2,3-b]pyridin-3-yl)-methyl]-phenol] | ≤ 10 | – | IC50 (IGF1R): ≤ 10 µM
COc1ccc(F)c(C(=O)c2c[nH]c3ncc(-c4cccnc4)cc23)c1 [Compound P-0090] | ≤ 10 | – | –
O=C(c1cc(O)ccc1F)c1c[nH]c2ncccc12 [Compound P-0005] | ≤ 10 | – | –
O=C(c1cccc(O)c1F)c1c[nH]c2ncc(-c3cccs3)cc12 [Compound P-0521, (2-fluoro-3-hydroxy-phenyl)-(5-thiophen-2-yl-1H-pyrrolo[2,3-b]pyridin-3-yl)-methanone] | ≤ 10 | ≤ 10 | IC50 (Syk): ≤ 10 µM
Cc1ccc(S(=O)(=O)NCc2c[nH]c3ncccc23)cc1 [Compound P-0058] | – | ≤ 10 | –
NC(=O)c1ccc(-c2ccnc3[nH]cc(C(=O)c4cc(F)ccc4F)c23)cc1 [Compound P-0013] | ≤ 10 | – | –
CC(=O)Nc1cccc(-c2cnc3[nH]cc(C(=O)c4cccc(O)c4F)c3c2)c1 [Compound P-0035, N-{3-[3-(2-Fluoro-3-hydroxy-benzoyl)-1H-pyrrolo[2,3-b]pyridin-5-yl]-phenyl}-acetamide] | ≤ 10 | – | –
Cn1cc(C(F)(F)F)c(-c2ccc(S(=O)(=O)NCc3c[nH]c4ncccc34)s2)n1 [Compound P-0041] | – | ≤ 10 | –
O=C(O)/C=C/c1cccc(-c2cnc3[nH]cc(C(=O)c4cc(O)ccc4F)c3c2)c1 [Compound P-0010] | – | ≤ 10 | IC50 (Syk): ≤ 10 µM
CN(C)S(=O)(=O)Nc1ccc(F)c(Cc2c[nH]c3ncc(-c4cccnc4)cc23)c1F [Compound P-0166] | – | ≤ 10 | –
COc1ccc(C(=O)c2c[nH]c3ncc(-c4cccc(/C=C/C(=O)O)c4)cc23)c(Cl)c1 [Compound P-0015] | ≤ 10 | ≤ 10 | –
Cc1c(NS(C)(=O)=O)cccc1C(=O)c1c[nH]c2ncc(-c3ccccc3)cc12 [Compound P-0082, N-[2-Methyl-3-(5-phenyl-1H-pyrrolo[2,3-b]pyridine-3-carbonyl)-phenyl]-methanesulfonamide] | ≤ 10 | – | IC50 (MAP4K4): ≤ 10 µM
O=C(c1cccc(O)c1)c1c[nH]c2ncc(Nc3ccccc3)cc12 [Compound P-0025] | ≤ 10 | – | –
O=C(c1ccc(O)cc1Cl)c1c[nH]c2ncccc12 [Compound P-0021] | – | ≤ 10 | –
NC(=O)c1cccc(-c2cnc3[nH]cc(C(=O)c4cccc(O)c4F)c3c2)c1 [Compound P-0034, 3-[3-(2-Fluoro-3-hydroxy-benzoyl)-1H-pyrrolo[2,3-b]pyridin-5-yl]benzamide] | ≤ 10 | – | –

Continued, in another order:

IC50 (Jnk2) [µM] | IC50 (Pyk2) [µM] | SMILES | other results
≤ 10 | – | O=C(c1cccc(O)c1)c1c[nH]c2ncc(-c3cccs3)cc12 [Compound P-0196] | IC50 (Syk): ≤ 10 µM
≤ 10 | – | O=C(c1cccc(O)c1F)c1c[nH]c2ncc(-c3cccnc3)cc12 [Compound P-0027, (2-Fluoro-3-hydroxy-phenyl)-(5-pyridin-3-yl-1H-pyrrolo[2,3-b]pyridin-3-yl)-methanone] | –
≤ 10 | ≤ 10 | Oc1cccc(Cc2c[nH]c3ncc(-c4cccs4)cc23)c1F [Compound P-0052, 2-Fluoro-3-(5-thiophen-2-yl-1H-pyrrolo[2,3-b]pyridin-3-ylmethyl)-phenol] | –
≤ 10 | – | Cc1c(O)cccc1C(=O)c1c[nH]c2ncc(-c3cccnc3)cc12 [Compound P-0006, (3-Hydroxy-2-methyl-phenyl)-(5-pyridin-3-yl-1H-pyrrolo[2,3b]pyridin-3-yl)-methanone] | –
≤ 10 | – | Cc1c(O)cccc1C(=O)c1c[nH]c2ncc(-c3ccccc3)cc12 [Compound P-0016, (3-Hydroxy-2-methyl-phenyl)-(5-phenyl-1H-pyrrolo[2,3b]pyridin-3-yl)-methanone] | –
– | ≤ 10 | O=C(c1cc(O)ccc1F)c1c[nH]c2ncc(-c3cccs3)cc12 [Compound P-0032] | –
– | ≤ 10 | Oc1ccc(F)c(Cc2c[nH]c3ncc(-c4cccnc4)cc23)c1F [Compound P-0078, 2,4-difluoro-3-(5-pyridin-3-yl-1H-pyrrolo[2,3-b]pyridin-3-ylmethyl)-phenol] | –
– | ≤ 10 | O=C(c1ccc(O)cc1)c1c[nH]c2ncc(-c3cccs3)cc12 [Compound P-0024, (4-Hydroxy-phenyl)-(5-thiophen-2-yl-1H-pyrrolo[2,3-b]pyridin-3-yl)-methanone] | –
≤ 10 | ≤ 10 | CC(=O)Nc1cccc(-c2cnc3[nH]cc(C(=O)c4cc(O)ccc4F)c3c2)c1 [Compound P-0001] | –
≤ 10 | ≤ 10 | Oc1cccc(Cc2c[nH]c3ncc(-c4ccsc4)cc23)c1 [Compound P-0056] | IC50 (Syk): ≤ 10 µM
